Reference: ChEMBL document CHEMBL1201862, “PubChem BioAssay data set” (2004)
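Method: 48-hour compound exposure of cells in 96-well plates, five concentrations, linear interpolation of endpoints. GI50 marks 50% less growth.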 The source made the active and inactive calls. Rule as the data show it: active = GI50 up to about 1.1 µM and inactive = higher.

What was measured:
Assay in all cases: NCI anticancer screen, dose series, 48 h
[1] = test system: MCF7
[2] = test system: HCT-15
[3] = test system: HCC 2998
[4] = test system: BT-549
[5] = test system: SK-MEL-2
[6] = test system: PC-3
[7] = test system: A549
[8] = test system: Hs-578T
[9] = test system: SK-MEL-5
[10] = test system: SN12C
[11] = test system: 786-0
[12] = test system: KM12
[13] = test system: UACC-257
[14] = test system: U-251
[15] = test system: MOLT-4
[16] = test system: NCI/ADR-RES
[17] = test system: Malme-3M
[18] = test system: SW-620
[19] = test system: HT-29
[20] = test system: RPMI-8226

| Compound | GI50 [1] | GI50 [2] [µM] | GI50 [3] | GI50 [4] | GI50 [5] | GI50 [6] | GI50 [7] | GI50 [8] | GI50 [9] | GI50 [10] | GI50 [11] | GI50 [12] | GI50 [13] | GI50 [14] | GI50 [15] | GI50 [16] | GI50 [17] | GI50 [18] | GI50 [19] | GI50 [20] |
| --- | --- | --- | --- | --- | --- | --- | --- | --- | --- | --- | --- | --- | --- | --- | --- | --- | --- | --- | --- | --- |
| Cc1ncc([N+](=O)[O-])n1CCNC(=O)Cn1c([N+](=O)[O-])cnc1C | > 100 µM (inactive) | > 100 | > 100 µM (inactive) | > 100 µM (inactive) | > 100 µM (inactive) | > 100 µM (inactive) | > 100 µM (inactive) | > 100 µM (inactive) | > 100 µM (inactive) | > 100 µM (inactive) | > 100 µM (inactive) | > 100 µM (inactive) | > 100 µM (inactive) | > 100 µM (inactive) | > 100 µM (inactive) | > 100 µM (inactive) | > 100 µM (inactive) | > 100 µM (inactive) | > 100 µM (inactive) |  |
| CC(C)(C)c1cc(Br)c(O)c(CN(Cc2cc(C(C)(C)C)cc(Br)c2O)C2CCCCC2)c1 | 13.9 µM (inactive) | 12.8 |  | 15.8 µM (inactive) | 13.1 µM (inactive) | 14.9 µM (inactive) | 14.1 µM (inactive) | 13.1 µM (inactive) | 10.9 µM (inactive) | 14.8 µM (inactive) | 14.6 µM (inactive) | 14.7 µM (inactive) | 4.14 µM (inactive) | 13.9 µM (inactive) | 10.4 µM (inactive) | 12 µM (inactive) | 11.8 µM (inactive) | 13.1 µM (inactive) | 6.89 µM (inactive) | 11.8 µM (inactive) |
| CCN1CN(c2ccccc2)C2(CCN(CC3COc4ccccc4O3)CC2)C1=O (configuration not stated) | 26.1 µM (inactive) | 20.5 |  | 16 µM (inactive) | 13.2 µM (inactive) | 25.3 µM (inactive) | 36.6 µM (inactive) | 20.7 µM (inactive) | 18.2 µM (inactive) | 41.5 µM (inactive) | 47.9 µM (inactive) | 17.5 µM (inactive) | 35.3 µM (inactive) | 30.6 µM (inactive) | 14.5 µM (inactive) | 37.2 µM (inactive) | 16.9 µM (inactive) | 47.8 µM (inactive) | 20.1 µM (inactive) | 17.4 µM (inactive) |
| COc1cccc(/C=C/c2cnc3ccccc3n2)c1OC | 25.9 µM (inactive) | 27.5 |  | 17.4 µM (inactive) | 28.8 µM (inactive) | 25.1 µM (inactive) | 40.7 µM (inactive) | 19.1 µM (inactive) | 17.1 µM (inactive) | 39.5 µM (inactive) | 39.1 µM (inactive) | 30.8 µM (inactive) | 37.4 µM (inactive) | 39.3 µM (inactive) | 12.9 µM (inactive) | 18.5 µM (inactive) | 34.5 µM (inactive) | 52.1 µM (inactive) | 26.4 µM (inactive) | 41.8 µM (inactive) |
| O=[N+]([O-])c1nccn1CCCNCCCn1ccnc1[N+](=O)[O-] | > 100 µM (inactive) | > 100 |  | > 100 µM (inactive) | > 100 µM (inactive) | > 100 µM (inactive) | > 100 µM (inactive) | > 100 µM (inactive) | > 100 µM (inactive) | > 100 µM (inactive) | > 100 µM (inactive) | > 100 µM (inactive) | > 100 µM (inactive) | > 100 µM (inactive) | > 100 µM (inactive) | > 100 µM (inactive) | 36.6 µM (inactive) | > 100 µM (inactive) | 85.9 µM (inactive) | > 100 µM (inactive) |
| CCc1c2c([nH]c(=S)c1C#N)CCC2 | > 100 µM (inactive) | > 100 | > 100 µM (inactive) | > 100 µM (inactive) | > 100 µM (inactive) | > 100 µM (inactive) | > 100 µM (inactive) | > 100 µM (inactive) | > 100 µM (inactive) |  | > 100 µM (inactive) | > 100 µM (inactive) | > 100 µM (inactive) | > 100 µM (inactive) | > 100 µM (inactive) | > 100 µM (inactive) | > 100 µM (inactive) | > 100 µM (inactive) | > 100 µM (inactive) | > 100 µM (inactive) |
| C=CCN(c1cc(OC)c(NC(C)=O)cc1[N+](=O)[O-])S(C)(=O)=O | > 100 µM (inactive) | > 100 | > 100 µM (inactive) | > 100 µM (inactive) | > 100 µM (inactive) | > 100 µM (inactive) | > 100 µM (inactive) | > 100 µM (inactive) | > 100 µM (inactive) | > 100 µM (inactive) | > 100 µM (inactive) | > 100 µM (inactive) | > 100 µM (inactive) | > 100 µM (inactive) | > 100 µM (inactive) | > 100 µM (inactive) | 10.1 µM (inactive) | > 100 µM (inactive) |  | > 100 µM (inactive) |
| CC(=O)Oc1ccc2oc(=O)cc(C)c2c1 | > 100 µM (inactive) |  | > 100 µM (inactive) | > 100 µM (inactive) | > 100 µM (inactive) | > 10 µM (inactive) | > 100 µM (inactive) | > 100 µM (inactive) | > 100 µM (inactive) | > 100 µM (inactive) | > 100 µM (inactive) | > 100 µM (inactive) | > 100 µM (inactive) | > 100 µM (inactive) | > 100 µM (inactive) | > 100 µM (inactive) | > 100 µM (inactive) | > 100 µM (inactive) | > 100 µM (inactive) | > 100 µM (inactive) |
| ClCCc1ccccc1CC1=NCCc2ccccc21 | 27.7 µM (inactive) | 33 | 25.1 µM (inactive) | 30.3 µM (inactive) | 18.5 µM (inactive) | 30.5 µM (inactive) | 33.2 µM (inactive) | 28.5 µM (inactive) | 22.8 µM (inactive) | 40.7 µM (inactive) | 42.6 µM (inactive) | 29.3 µM (inactive) | 34 µM (inactive) | 31.8 µM (inactive) | 26.9 µM (inactive) | 21.9 µM (inactive) |  | 29.9 µM (inactive) | 17.4 µM (inactive) | 16.3 µM (inactive) |
| CCN(CC)CCOc1ccccc1/C=C/c1noc2ccccc12 | 14.2 µM (inactive) | 10.5 | 5.79 µM (inactive) | 16.3 µM (inactive) | 0.736 µM (active) | 4.89 µM (inactive) |  | 15.7 µM (inactive) | 3.79 µM (inactive) | 11.5 µM (inactive) | 13.6 µM (inactive) | 16.4 µM (inactive) | 3.95 µM (inactive) |  | 12.1 µM (inactive) | 19 µM (inactive) | 1.01 µM (active) | 10.2 µM (inactive) | 2.27 µM (inactive) |  |
| CN(C)c1ncc(-c2c[nH]c3ccccc23)nc1-c1c[nH]c2ccccc12 | 2.3 µM (inactive) | 3.14 | 1.67 µM (inactive) | 13.8 µM (inactive) | 3.83 µM (inactive) | 3.69 µM (inactive) | 3.33 µM (inactive) | 2.78 µM (inactive) | 3.72 µM (inactive) | 2.88 µM (inactive) | 2.12 µM (inactive) | 2.19 µM (inactive) | 1.9 µM (inactive) | 3.37 µM (inactive) | 3.47 µM (inactive) | 9.95 µM (inactive) |  | 3.38 µM (inactive) | 2.19 µM (inactive) | 2.74 µM (inactive) |
| O=C(CSc1nc2ccccc2s1)c1sc2sc3ccccc3[n+]2c1[O-] | > 100 µM (inactive) | > 100 |  | > 100 µM (inactive) | > 100 µM (inactive) | > 100 µM (inactive) | > 100 µM (inactive) | > 100 µM (inactive) | > 100 µM (inactive) | > 100 µM (inactive) | > 100 µM (inactive) | > 100 µM (inactive) | > 100 µM (inactive) | > 100 µM (inactive) | > 100 µM (inactive) | > 100 µM (inactive) | > 100 µM (inactive) | > 100 µM (inactive) | > 100 µM (inactive) | > 100 µM (inactive) |
| COc1cc(C2S/C(=C/c3ccccc3)C(=O)N2c2cccc(Cl)c2)cc(OC)c1OC (configuration not stated) | 34 µM (inactive) | 34.8 | 46.1 µM (inactive) | 28.6 µM (inactive) | 62.7 µM (inactive) | 51.8 µM (inactive) | 78.3 µM (inactive) | 86.7 µM (inactive) | 35.7 µM (inactive) | 55.2 µM (inactive) | 33.3 µM (inactive) | 27.4 µM (inactive) | 23.6 µM (inactive) | 57.7 µM (inactive) | 22 µM (inactive) | 34.5 µM (inactive) |  | 46 µM (inactive) | 44.9 µM (inactive) | 24.8 µM (inactive) |
| O=C1c2cccc(O)c2C(=O)c2c(OC3OC(CO)C(O)C(O)C3O)cccc21 (configuration not stated) | 30.1 µM (inactive) | 20.6 | 24.8 µM (inactive) | 21.8 µM (inactive) | 46.8 µM (inactive) | 24.5 µM (inactive) | 27.3 µM (inactive) | 17.8 µM (inactive) | 16.5 µM (inactive) | 24.7 µM (inactive) | 22.2 µM (inactive) | 30.3 µM (inactive) | 19.5 µM (inactive) | 25.2 µM (inactive) |  | 17 µM (inactive) | 6.12 µM (inactive) | 16.9 µM (inactive) | 33.3 µM (inactive) | 23.9 µM (inactive) |
| CC(=O)Oc1ccc(/C=C/C(=O)O[C@@H](C(=O)O)[C@@H](OC(=O)/C=C/c2ccc(OC(C)=O)c(OC(C)=O)c2)C(=O)O)cc1OC(C)=O | > 100 µM (inactive) | > 100 | > 100 µM (inactive) | > 100 µM (inactive) | > 100 µM (inactive) | > 100 µM (inactive) | > 100 µM (inactive) | > 100 µM (inactive) | > 100 µM (inactive) | > 100 µM (inactive) | > 100 µM (inactive) | > 100 µM (inactive) | > 100 µM (inactive) | > 100 µM (inactive) |  | > 100 µM (inactive) | > 100 µM (inactive) | > 100 µM (inactive) |  | > 100 µM (inactive) |
